Patent US20240002393A1, “SUBSTITUTED BENZO[f][l ,2,4JTRIAZOL0[4,3-a][l ,4J[…] GABA A GAMMA! POSITIVE ALLOSTERIC MODULATORS” (Hoffmann-La Roche Inc., priority 2020, published 2024)
“And” between values parts separate entries of the source, which are not always exact repeats. Identical values can stand only once.

Key:
[1] = biological target: human GABAA α1β3γ2 receptor (Homo sapiens (Human), UniProt P14867+P18507); test: Radioligand binding assay, [3H]Flumazenil competition, γ2-containing GABAA subtypes; conditions: HEK293F membranes, [3H]Flumazenil 1 nM, mean of two determinations; read-out: Ki h-GABAA α1β3γ2
How it was run: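 Competition with [3H]Flumazenil (81.1 Ci/mmol) for binding to HEK293F cells transiently expressing human α1β3γ2 receptors, prepared in Mannitol Buffer pH 7.2-7.4. Incubated 1 hour at 4° C to equilibrium, filtered, washed with ice-cold 50 mM Tris pH 7.5, counted by liquid scintillation. Ki values are means of two determinations.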

[2] = biological target: human GABAA α5β2γ1 receptor (Homo sapiens (Human), UniProt P31644+Q8N1C3); test: Radioligand binding assay, [3H]RO7239181 competition, γ1-containing GABAA subtypes; conditions: HEK293F membranes, mean of two determinations
Description: The affinity of compounds at GABAA γ1 subunit-containing receptors was measured by competition for [^3H]RO7239181 (67.3 Ci/mmol; Roche) binding to membranes from HEK293F cells (ThermoFisher R79007) expressing human (transiently transfected) receptors of composition α5β2γ1, α2β2γ1, α1β2γ1. For better protein expression of the α2 subunit-containing receptors, the 28 amino acid long signal peptide (Met1 to Ala28) of the human GABAA α2 subunit was substituted by the 31 amino acid long signal peptide (Met1 to Ser31) of human GABAA α5 subunit.
Harvested pellets from HEK293F cells expressing the different GABAA receptor subtypes were resuspended in Mannitol Buffer pH 7.2-7.4 (Mannitol 0.29M, Triethylamine 10 mM, Acetic acid 10 mM, EDTA 1 mM plus protease inhibitors (20 tablets Complete, Roche Diagnostics Cat. No. 05 056 489 001 per liter)), washed two times and then resuspended at 1:10 to 1:15 dilution in the same buffer. Cell disruption was performed by stirring the suspension in a Parr vessel #4637 at 435 psi for 15 minutes, and then the suspensions were centrifuged at 1000×g for 15 minutes at 4° C. (Beckman Avanti J-HC; rotor JS)-4.2). The supernatant (S1) was transferred in a 21 Schott flask and the pellet (P1) was resuspended with Mannitol Buffer up to 175 ml. The resuspended pellet was transferred into a 250 ml Corning centrifugal beaker and centrifuged at 1500×g for 10 minutes at 4° C. (Beckman Avanti J-HC; rotor JS)-4.2). The supernatant (S1) was then transferred in the 21 Schott flask and the pellet was discarded. The supernatants (S1) were centrifuged in 500 ml Beckman polypropylene centrifugal beaker at 15,000×g for 30 minutes at 4° C. (Beckman Avanti J-20 XP; rotor JLA-10.500). The pellet (P2) was resuspended with Mannitol Buffer 1:1 and frozen at −80° C. The supernatant (S2) was centrifuged in 100 ml Beckman polypropylene centrifugal tubes at 48000×g for 50 minutes at […] (Beckman Avanti J-20 XP; rotor JA-18). The supernatant (S3) was discarded and the pellet (P3) was resuspended with 1:1 Mannitol Buffer. The P2 and P3 protein concentration was determined with the BIORAD Standard assay method with bovine serum albumin as standard and measured on the NANO-Drop 1000. The membrane suspension was aliquots (500 μl per tube) and stored at −80° C. until required.
Membrane homogenates were resuspended and polytronised (Polytron PT1200E Kinematica AG) in Potassium Phosphate 10 mM, KCl 100 mM binding buffer at pH 7.4 to a final assay concentration determined with a previous experiment.
Radioligand binding assays were carried out in a volume of 200 µL (96-well plates) which contained 100 μL of cell membranes, [^3H]RO7239181 at a concentration of 1.5 nM (α5β2γ1) or 20-30 nM (α1β2γ1, 2β2γ1) and the test compound in the range of [0.3-10000]×10^−9 M. Nonspecific binding was defined by 10×10^−6 (α5β2γ1) and 30×10^−6 M RO7235136 and typically represented less than 5% (α5β2γ1) and less than 20% (α1β2γ1, α2β2γ1) of the total binding. Assays were incubated to equilibrium for 1 hour at 4° C. and then, membranes were filtered onto unifilter (96-well white microplate with bonded GF/C filters preincubated 20-50 minutes in 0.3% Polyethylenimine) with a Filtermate 196 harvester (Packard BioScience) and washed 4 times with cold Potassium Phosphate 10 mM pH 7.4, KCl 100 mM binding buffer. After drying, filter-retained radioactivity was detected by liquid scintillation counting. K, values were calculated using Excel-Fit (Microsoft) and are the means of two determinations.
Representative test results, obtained by the above described assay measuring binding affinity to HEK293 cells expressing human (h) receptors, are shown in the Table 1.

[3] = biological target: human GABAA α1β2γ1 receptor (Homo sapiens (Human), UniProt P14867+Q8N1C3); test: as above; conditions: HEK293F membranes, [3H]RO7239181 20-30 nM, mean of two determinations
[4] = biological target: human GABAA α2β2γ1 receptor (Homo sapiens (Human), UniProt P47869+Q8N1C3); test: as above; conditions: for Ki: HEK293F membranes, [3H]RO7239181 20-30 nM, mean of two determinations, read-out: Ki h-GABAA α2β2γ1; for γ2/γ1 Selectivity Ratio: Ki α1β3γ2 (nM)/Ki α2β2γ1 (nM); for LogSel: Log[Ki α1β3γ2 (nM)/Ki α2β2γ1 (nM)]

CC[C@@H]1N=C(c2c(F)cccc2F)c2c(ccc(Br)c2Cl)-n2c(C)nnc21 [Example 98, (4S)-8-bromo-7-chloro-6-(2,6-difluorophenyl)-4-ethyl-1-methyl-4H-[1,2,4]triazolo[4,3-a][1,4]benzodiazepine]
Ki [1]: 1460 nM
Ki [2]: 4.4 nM
Ki [3]: 57.6 nM
Ki [4]: 72 nM
γ2/γ1 Selectivity Ratio [4]: 20.3
LogSel [4]: 1.31

Cc1nnc2n1-c1ccc(Br)c(Cl)c1C(c1c(F)cccc1F)=N[C@H]2CO [Example 101, [(4R)-8-bromo-7-chloro-6-(2,6-difluorophenyl)-1-methyl-4H-[1,2,4]triazolo[4,3-a][1,4]benzodiazepin-4-yl]methanol]
Ki [1]: 495 nM
Ki [2]: 1 nM
Ki [3]: 14.3 nM
Ki [4]: 26.4 nM
γ2/γ1 Selectivity Ratio [4]: 18.8
LogSel [4]: 1.27

Cc1cc(-c2nnc3n2-c2ccc(Cl)c(Cl)c2C(c2c(F)cccc2F)=N[C@H]3C)ncn1 [Example 94, (4S)-7,8-dichloro-6-(2,6-difluorophenyl)-4-methyl-1-(6-methylpyrimidin-4-yl)-4H-[1,2,4]triazolo[4,3-a][1,4]benzodiazepine]
Ki [1]: 609 nM
Ki [2]: 2 nM
Ki [3]: 10.3 nM
Ki [4]: 8 nM
γ2/γ1 Selectivity Ratio [4]: 76.4
LogSel [4]: 1.88

C[C@@H]1N=C(c2c(F)cccc2F)c2c(ccc(Cl)c2Br)-n2c(-c3cccnn3)nnc21 [Example 73, (4S)-7-bromo-8-chloro-6-(2,6-difluorophenyl)-4-methyl-1-(pyridazin-3-yl)-4H-benzo[f][1,2,4]triazolo[4,3-a][1,4]diazepine]
Ki [1]: 768 nM
Ki [2]: 2 nM
Ki [3]: 23.5 nM
Ki [4]: 8.8 nM
γ2/γ1 Selectivity Ratio [4]: 87.5
LogSel [4]: 1.94

C[C@@H]1N=C(c2ncccc2F)c2c(ccc(Cl)c2Cl)-n2c(C3CC3)nnc21 [Example 68, (4S)-7,8-dichloro-1-cyclopropyl-6-(3-fluoro-2-pyridyl)-4-methyl-4H-[1,2,4]triazolo[4,3-a][1,4]benzodiazepine]
Ki [1]: 1060 nM
Ki [2]: 7 nM
Ki [3]: 359 nM
Ki [4]: 38.8 nM
γ2/γ1 Selectivity Ratio [4]: 27.4
LogSel [4]: 1.44

Cc1cc(-c2nnc3n2-c2ccc(Cl)c(Cl)c2C(c2c(F)cccc2F)=N[C@H]3C)nc(C)n1 [Example 96, (4S)-7,8-dichloro-6-(2,6-difluorophenyl)-1-(2,6-dimethylpyrimidin-4-yl)-4-methyl-4H-[1,2,4]triazolo[4,3-a][1,4]benzodiazepine]
Ki [1]: 473 nM
Ki [2]: 3 nM
Ki [3]: 27.9 nM
Ki [4]: 13.9 nM
γ2/γ1 Selectivity Ratio [4]: 34.1
LogSel [4]: 1.53

Cc1ccc2c(c1Cl)C(c1c(F)cccc1F)=N[C@@H](C)c1nnc(C)n1-2 [Example 97, (4S)-7-chloro-6-(2,6-difluorophenyl)-1,4,8-trimethyl-4H-[1,2,4]triazolo[4,3-a][1,4]benzodiazepine]
Ki [1]: 425 nM
Ki [2]: 2.5 nM
Ki [3]: 33.6 nM
Ki [4]: 27.1 nM
γ2/γ1 Selectivity Ratio [4]: 15.7
LogSel [4]: 1.19

C[C@@H]1N=C(c2ncccc2F)c2c(ccc(Br)c2Cl)-n2cnnc21 [Example 84, (4S)-8-bromo-7-chloro-6-(3-fluoro-2-pyridyl)-4-methyl-4H-[1,2,4]triazolo[4,3-a][1,4]benzodiazepine]
Ki [1]: 1210 nM
Ki [2]: 6.5 nM
Ki [3]: 97.1 nM
Ki [4]: 71.3 nM
γ2/γ1 Selectivity Ratio [4]: 16.9
LogSel [4]: 1.23

Cc1nnc2n1-c1ccc(Br)c(Cl)c1C(c1c(F)cccc1F)=N[C@H]2C [Example 75, (4S)-8-bromo-7-chloro-6-(2,6-difluorophenyl)-1,4-dimethyl-4H-[1,2,4]triazolo[4,3-a][1,4]benzodiazepine]
Ki [1]: 202 nM
Ki [2]: 0.8 nM
Ki [3]: 8.3 nM
Ki [4]: 5.3 nM
γ2/γ1 Selectivity Ratio [4]: 38.0
LogSel [4]: 1.58

C[C@@H]1N=C(c2c(F)cccc2F)c2c(ccc(Br)c2Cl)-n2cnnc21 [Example 51, (4S)-8-bromo-7-chloro-6-(2,6-difluorophenyl)-4-methyl-4H-[1,2,4]triazolo[4,3-a][1,4]benzodiazepine]
Ki [1]: 393 nM
Ki [2]: 0.8 nM
Ki [3]: 9 nM
Ki [4]: 4.9 nM
γ2/γ1 Selectivity Ratio [4]: 79.5 and 80
LogSel [4]: 1.9

Cc1cc(-c2nnc3n2-c2ccc(Cl)c(Cl)c2C(c2c(F)cccc2F)=N[C@H]3C)on1 [Example 87, 5-[(4S)-7,8-dichloro-6-(2,6-difluorophenyl)-4-methyl-4H-[1,2,4]triazolo[4,3-a][1,4]benzodiazepin-1-yl]-3-methyl-isoxazole]
Ki [1]: 532 nM
Ki [2]: 2.1 nM
Ki [3]: 8 nM
Ki [4]: 7.5 nM
γ2/γ1 Selectivity Ratio [4]: 70.9
LogSel [4]: 1.85

Cc1nccc(-c2nnc3n2-c2ccc(Cl)c(Cl)c2C(c2c(F)cccc2F)=N[C@H]3C)n1 [Example 95, (4S)-7,8-dichloro-6-(2,6-difluorophenyl)-4-methyl-1-(2-methylpyrimidin-4-yl)-4H-[1,2,4]triazolo[4,3-a][1,4]benzodiazepine]
Ki [1]: 466 nM
Ki [2]: 1.5 nM
Ki [3]: 24.7 nM
Ki [4]: 14.2 nM
γ2/γ1 Selectivity Ratio [4]: 32.7
LogSel [4]: 1.51

C[C@@H]1N=C(c2ncccc2F)c2c(ccc(Cl)c2Cl)-n2c(-c3cnn(C)c3)nnc21 [Example 67, (4S)-7,8-dichloro-6-(3-fluoro-2-pyridyl)-4-methyl-1-(1-methylpyrazol-4-yl)-4H-[1,2,4]triazolo[4,3-a][1,4]benzodiazepine]
Ki [1]: 1420 nM
Ki [2]: 3.2 nM
Ki [3]: 188 nM
Ki [4]: 26.5 nM
γ2/γ1 Selectivity Ratio [4]: 53.5
LogSel [4]: 1.73

C[C@@H]1N=C(c2ncccc2F)c2c(ccc(Br)c2Cl)-n2c(C3CC3)nnc21 [Example 83, (4S)-8-bromo-7-chloro-1-cyclopropyl-6-(3-fluoro-2-pyridyl)-4-methyl-4H-[1,2,4]triazolo[4,3-a][1,4]benzodiazepine]
Ki [1]: 853 nM
Ki [2]: 2.7 nM
Ki [3]: 128 nM
Ki [4]: 23.2 nM
γ2/γ1 Selectivity Ratio [4]: 36.8
LogSel [4]: 1.57

Cc1nnc2n1-c1ccc(I)c(Cl)c1C(c1c(F)cccc1F)=N[C@H]2C [Example 102, (4S)-7-chloro-6-(2,6-difluorophenyl)-8-iodo-1,4-dimethyl-4H-[1,2,4]triazolo[4,3-a][1,4]benzodiazepine]
Ki [1]: 278 nM
Ki [2]: 0.8 nM
Ki [3]: 6.6 nM
Ki [4]: 8 nM
γ2/γ1 Selectivity Ratio [4]: 34.7
LogSel [4]: 1.54
